# Laboratory results taken from patent US6888014B2, “Dammarane sapogenins, their use as anti-cancer agents, and a process for producing same” (PanaGin Pharmaceuticals Inc., priority 2001, dated 2005).
# How the values were obtained:
# [1] = system: human malignant glioma cells (U87); experiment: Mouse intracranial human malignant glioma (U87) model (FIG. 5); type: in vivo, Nude mice; conditions: 25 mg/kg and 50 mg/kg, treatment from day 10 post implantation, p<0.01 Kaplan Meier
# Protocol: FIG. 5 illustrates a graph of the therapeutic effect of PAM-120 on mouse intracranial human malignant glioma (U87) model. Nude mice were intracranially implanted with human malignant glioma cells (U87). On day 10 post tumor implantation, animals were treated with various dosages of PAM-120.
# [2] = system: Human non-small-cell lung carcinoma H460 cells; experiment: Cancer cell inhibition in vitro, crystal violet staining, cell viability; type: cell-based; conditions: for Absorbency of Stained Cells (M ± SD) / viability at 40 µg/mL / viability at 25 µg/mL / V(%) cancer cell viability: H460 cells, 24 hours; for Absorbency of Stained Cells (M ± SD): 590 nm; for viability at 40 µg/mL / viability at 25 µg/mL: Homo sapiens, NCI-H460, read-out: V(%) cancer cell viability; for inhibitory effect on proliferation of H460 cells (in words): P<0.01 compared with control; for inhibitory effect on proliferation of H460 cells compared with Rh2 (in words): P<0.05 compared with that of Rh2
# Protocol: Composition: 20(S)-Rh2 was provided by Shenyang Pegasus Pharmaceutical R&D Co., China, with a purity of over 98%. The molecular weight for Rh2 was 622.3. Sapogenins PAM-120, PBM-100 and PAN-30 were derived from the process stated in Example 1. The molecular weights of PAM-120, PBM-100 and PAN-30 were respectively 442.7, 474.7 and 766.6, and the purity for each of the three agents was higher than 99%. Rh2, PAM-120, PBM-100 and PAN-30 were dissolved 1 gram each separately in 100 ml absolute ethanol and stored at 4° C. the agents were diluted with RPMI-1640 medium to the desired concentrations as shown in Table 1.
# Cells: Human non-small-cell lung carcinoma H460 cells were incubated in RPMI-1640 medium added with 10% fetal calf serum, 100 units penicillin/ml, and 100 μg streptomycin/ml in 5% CO2 at 37° C.
# In vitro treatment: H460 cells were seeded in 96-well flat-bottomed microtest-plates at 1.2×10^3 cells per well, six wells in each group, incubated in humidified 5% CO2 at 37° C. for 24 hours with or without the agents according to the schedule as shown below.
# After the 24 hours of incubation, an equal volume of 10% formalin phosphate-buffered saline containing 0.2% crystal violet was added to each well and left at room temperature for 20 minutes. The plates were then washed twice with distilled water and dried at room temperature. The absorbency of the stained cells at 590 nm was then measured using an automatic microtest-plate reader. Average absorbency of the control wells (Ac) without any treatment was calculated, average absorbency of each treatment group (ATi) was determined, and then the average cell viability of each treatment group (Vi) was derived using the following formula: [formula] B. Result
# Murine sarcoma 180 cells = experiment: Cancer bearing mice life prolongation test; type: in vivo, C57BL/6J mice; conditions: for DS50 (days of survival for 50% animals) / LPR(%) life prolongation rate: oral, lifetime or up to 120 days
# Description: Fifty (50) C57BL/6J mice weighing 18-22 g, without sex discrimination, were randomly assigned to one control group and four treatment groups, each with 10 animals. Murine sarcoma 180 cells were intraperitoneally transplanted to the mice. 20(S)-Rh2 was provided by Shenyang Pegasus Pharmaceutical R&D Co., China, with a purity of over 98%. The molecular weight for Rh2 was 622.3. The novel sapogenin PAM-120 was derived from the process described in Example 2 according to this invention. The molecular weight of PAM-120 was 442.7, and the purity for PAM-120 was higher than 99%. The drugs were prepared into a suspension form respectively. The mice were weighed daily prior to drug administration to determine the actual measurement of drug administered. Drug administration started from 24 hours post tumor inoculation. The mice in the two low-dose treatment groups were orally given the Rh2 and PAM-120 preparations using a gastric catheter at a daily dose of 10 mg/kg of Rh2 and 10 mg/kg of PAM-120 respectively for a lifetime or up to 120 days. The mice in the two high-dose treatment groups were orally given the Rh2 and PAM-120 preparations using a gastric catheter at a daily dose of 25 mg/kg of Rh2 and 25 mg/kg of PAM-120 respectively for a lifetime or up to 120 days. The mice in the control group were orally given a normal saline. For each group, the days of survival for 50% animals (DS50) and the average days of survival (ADS) were recorded. For groups containing one or more animals that could have lived longer than 120 days (the designed sacrifice day was d 120), the ADS would be so calculated that these animals were counted as if they had died on day 120, and a note would be made. The life prolongation rate (LPR) was calculated with the following formula: [formula] B. Result
# [3] = system: human malignant glioma cells (U87); experiment: Mouse subcutaneous human malignant glioma (U87) model (FIG. 6); type: in vivo, Nude mice; conditions: 25 mg/ml; for tumor growth compared with PBS control animals (in words): treatment from day 7, tumor sizes measured day 7 and day 24
# Protocol: FIG. 6 illustrates a graph of the therapeutic effect of PAM-120 on mouse subcutaneous human malignant glioma (U87) model. Nude mice were subcutaneously implanted with human malignant glioma cells (U87). On day 7 post tumor implantation, animals were treated with 25 mg/ml PAM-120 or equal dose of Rh2. Tumor sizes were measured on day 7 (before treatment) and day 24 (after the treatment).
Compound,survival time after tumor implantation (in words) [1],Absorbency of Stained Cells (M ± SD) ([2]; high-dose 40 μg/ml),Absorbency of Stained Cells (M ± SD) ([2]; low-dose 25 μg/ml),viability at 40 µg/mL ([2]; high-dose 40 μg/ml),viability at 25 µg/mL ([2]; low-dose 25 μg/ml),inhibitory effect on proliferation of H460 cells (in words) [2],inhibitory effect on proliferation of H460 cells compared with Rh2 (in words) [2],"mice that survived the whole 120 days, no tumors found postmortally (Murine sarcoma 180 cells; 25 mg/kg treatment group, 10 animals)",anti-cancer effect on murine sarcoma compared with Rh2 (in words) (Murine sarcoma 180 cells; P<0.01 compared with relevant Rh2 treatment dose groups),life prolongation of mice bearing murine sarcoma compared with control (in words) (Murine sarcoma 180 cells; P<0.01 compared with the average days of survival in the control),DS50 (days of survival for 50% animals) (Murine sarcoma 180 cells; 10 mg/kg daily),LPR(%) life prolongation rate (Murine sarcoma 180 cells; 10 mg/kg daily),DS50 (days of survival for 50% animals) (Murine sarcoma 180 cells; 25 mg/kg daily),LPR(%) life prolongation rate (Murine sarcoma 180 cells; 25 mg/kg daily),"tumor sizes compared with Rh2 treated animals (in words) ([3]; equal dose of Rh2, day 24, p<0.05)",tumor growth compared with PBS control animals (in words) [3],V(%) cancer cell viability ([2]; high-dose 40 μg/ml),V(%) cancer cell viability ([2]; low-dose 25 μg/ml)
"C=C(CCC=C(C)C)C1CC[C@]2(C)C1[C@H](O)CC1[C@@]3(C)CC[C@H](O)C(C)(C)C3CC[C@]12C (stereo partly drawn) [PAM-120, Dammara-20(21)-diene-3,12-diol]",significantly longer survival time,.125 ± .031,.220 ± .051,35.3%,62.1%,significant inhibitory effect,notable increase in inhibitory effect,Two,Better anti-cancer effect,significant increase in life prolongation,38 days,162.6%,77 days,448.3%,significantly smaller,significantly inhibited tumor growth,,
"CC(C)=CCC[C@](C)(O)[C@H]1CC[C@]2(C)[C@@H]1[C@H](O)C[C@@H]1[C@@]3(C)CC[C@H](O[C@@H]4O[C@H](CO)[C@@H](O)[C@H](O)[C@H]4O)C(C)(C)[C@@H]3CC[C@]12C [Rh2, 3-O-β-D-glucopyranosyl-20(s)-protopanaxadiol, reference compound]",,.181 ± .049,.278 ± .030,,,,,,,,22 days,68.0%,41 days,201.4%,,significantly inhibited tumor growth,50.99%,78.49%
C=C(C)[C@H](O)C/C=C(\C)C1CC[C@]2(C)C1[C@H](O)CC1[C@@]3(C)CC[C@H](O)C(C)(C)C3[C@@H](O)C[C@]12C (stereo partly drawn) [PBM-100],,.130 ± .019,.223 ± .040,36.5%,62.7%,significant inhibitory effect,notable increase in inhibitory effect,,,,,,,,,,,
"3-O-[β-D-glucopyranosyl(1→2)-β-D-glucopyranosyl]-dammara-20(22E)-diene-3,12-diol [PAN-30]",,.147 ± .032,.249 ± .045,,,significant inhibitory effect,,,,,,,,,,,41.49%,70.30%
